Source: patent publication US11168102B1, “Bicyclic heteroaryl compounds and uses thereof” (Revolution Medicines, Inc., priority 2019, dated 2021)
Where two headings read alike, the source gives them in different places.

Test system: cellular pERK in PC-9 cells (EGFR Ex19Del)
Test: Potency assay: pERK (AlphaLISA SureFire Ultra p-ERK1/2) in PC-9 cells
Type: cell-based
Conditions: PC-9 cells (EGFR Ex19Del), 1 hour incubation, AlphaLISA SureFire Ultra p-ERK1/2, read-out: SOS1 pERK IC50

## COC1(c2cc3c(N[C@H](C)c4cccc(C(F)F)c4F)ncnc3n(C)c2=O)C2CC1CN(C(C)=O)C2 (some centres unmarked) [Example 32-25]
Homo sapiens, PC-9, 1 h
  IC50: 1440 nM

## COC1(c2cc3c(N[C@H](C)c4cccc(C(F)F)c4F)nc(C)nc3n(C)c2=O)CC2(CN(C(C)=O)C2)C1 [Example 32-26]
Homo sapiens, PC-9, 1 h
  IC50: 41.8 nM

## C[C@@H](Nc1ncnc2c1cc(C1(OC3CC3)CCS(=O)(=O)CC1)c(=O)n2C)c1cccc(C(F)F)c1F [Example 32-27]
Homo sapiens, PC-9, 1 h
  IC50: 87.9 nM

## CO[C@@]1(c2cc3c(N[C@H](C)c4cccc(C(F)F)c4F)ncnc3n(C)c2=O)CCN(C(C)=O)[C@H](C)C1 [Example 32-28]
Homo sapiens, PC-9, 1 h
  IC50: 92.1 nM

## COC1(c2cc3c(N[C@H](C)c4cccc(C(F)F)c4F)ncnc3n(C)c2=O)CCN(C(C)=O)C(C)(C)C1 (some centres unmarked) [Example 32-29]
Homo sapiens, PC-9, 1 h
  IC50: 53.7 nM

## CO[C@@]1(c2cc3c(N[C@H](C)c4cccc(C(F)F)c4F)ncnc3n(C)c2=O)CCN(C(C)=O)[C@@H](C)C1 [Example 32-30]
Homo sapiens, PC-9, 1 h
  IC50: 236 nM

## CO[C@]1(c2cc3c(N[C@H](C)c4cccc(C(F)F)c4F)ncnc3n(C)c2=O)CCN(C(C)=O)[C@@H](C)C1 [Example 32-31]
Homo sapiens, PC-9, 1 h
  IC50: 10.1 nM

## COC1(c2cc3c(N[C@H](C)c4cccc(C(F)F)c4F)ncnc3n(C)c2=O)CCCS(=O)(=O)CC1 (some centres unmarked) [Example 32-33]
Homo sapiens, PC-9, 1 h
  IC50: 85.9 nM

## COC1(c2cc3c(N[C@H](C)c4cccc(C(F)F)c4F)ncnc3n(C)c2=O)CCCS(=O)(=O)CC1 (some centres unmarked) [Example 32-34]
  IC50: 71.1 nM

## COC1(c2cc3c(N[C@H](C)c4cccc(C(F)F)c4F)ncnc3n(C)c2=O)CCC2CN(C(C)=O)CC21 (some centres unmarked) [Example 32-35]
Homo sapiens, PC-9, 1 h
  IC50: 244 nM

## COC1(c2cc3c(N[C@H](C)c4cccc(C(F)F)c4F)ncnc3n(C)c2=O)CC2CN(C(C)=O)C2C1 (some centres unmarked) [Example 32-36]
Homo sapiens, PC-9, 1 h
  IC50: 93.1 nM

## COC1(c2cc3c(N[C@H](C)c4cccc(C(F)F)c4F)ncnc3n(C)c2=O)C[C@@H](C)N(C(C)=O)C1 (some centres unmarked) [Example 32-37]
Homo sapiens, PC-9, 1 h
  IC50: 11.8 nM

## COC1(c2cc3c(N[C@H](C)c4cccc(C(F)F)c4F)ncnc3n(C)c2=O)C[C@H](C)N(C(C)=O)C1 (some centres unmarked) [Example 32-38]
Homo sapiens, PC-9, 1 h
  IC50: 172 nM

## COC1(c2cc3c(N[C@H](C)c4cccc(C(F)F)c4F)ncnc3n(C)c2=O)CCCN(C(C)=O)CC1 (some centres unmarked) [Example 32-39]
Homo sapiens, PC-9, 1 h
  IC50: 54.2 nM

## CO[C@]1(c2cc3c(N[C@H](C)c4cccc(C(F)F)c4F)ncnc3n(C)c2=O)C[C@H](N(C)C(C)=O)C1 [Example 32-41]
Homo sapiens, PC-9, 1 h
  IC50: 461 nM

## COC1(c2cc3c(N[C@H](C)c4cccc(C(F)F)c4F)ncnc3n(C)c2=O)CCN(C(C)=O)C2(CC2)C1 (some centres unmarked) [Example 32-42]
Homo sapiens, PC-9, 1 h
  IC50: 355 nM

## COC1(c2cc3c(N[C@H](C)c4cccc(C(F)F)c4F)ncnc3n(C)c2=O)CCN(C(C)=O)C2(CC2)C1 (some centres unmarked) [Example 32-43]
  IC50: 181 nM

## CC(=O)N1CCC(OC2CC2)(c2cc3c(N[C@H](C)c4cccc(C(F)F)c4F)ncnc3n(C)c2=O)CC1 [Example 32-44]
Homo sapiens, PC-9, 1 h
  IC50: 32.1 nM

## COC1(c2cc3c(N[C@H](C)c4cccc(C(F)F)c4F)ncnc3n(C)c2=O)CCP(C)(=O)CC1 (some centres unmarked) [Example 32-45]
Homo sapiens, PC-9, 1 h
  IC50: 249 nM

## COC1(c2cc3c(N[C@H](C)c4cccc(C(F)F)c4F)ncnc3n(C)c2=O)CCP(C)(=O)CC1 (some centres unmarked) [Example 32-46]
  IC50: 148 nM

## CO[C@]1(c2cc3c(N[C@H](C)c4cccc(C(F)F)c4F)ncnc3n(C)c2=O)C[C@@H](C)N(C(C)=O)C1 [Example 32-47]
Homo sapiens, PC-9, 1 h
  IC50: 77.6 nM

## CO[C@@]1(c2cc3c(N[C@H](C)c4cccc(C(F)F)c4F)ncnc3n(C)c2=O)C[C@@H](C)N(C(C)=O)C1 [Example 32-48]
Homo sapiens, PC-9, 1 h
  IC50: 5.4 nM

## CO[C@]1(c2cc3c(N[C@H](C)c4cccc(C(F)F)c4F)ncnc3n(C)c2=O)C[C@H](C)N(C(C)=O)C1 [Example 32-49]
Homo sapiens, PC-9, 1 h
  IC50: 102 nM

## CO[C@@]1(c2cc3c(N[C@H](C)c4cccc(C(F)F)c4F)ncnc3n(C)c2=O)C[C@H](C)N(C(C)=O)C1 [Example 32-50]
Homo sapiens, PC-9, 1 h
  IC50: 153 nM

## CO[C@]1(c2cc3c(N[C@H](C)c4cccc(C(F)F)c4F)ncnc3n(C)c2=O)CCN(C(C)=O)[C@H](C)C1 [Example 32-51]
Homo sapiens, PC-9, 1 h
  IC50: 5.79 nM

## CO[C@]1(c2cc3c(N[C@H](C)c4cccc(C(F)F)c4F)ncnc3n(C)c2=O)CCN(C(C)=O)C(C)(C)C1 [Example 32-52]
Homo sapiens, PC-9, 1 h
  IC50: 18.1 nM
